Reference: US11492346B2, “Benzisoxazole sulfonamide derivatives” (Pfizer Inc., priority 2019, dated 2022)
Like-named read-outs stand apart in the source and are kept apart here.

How the values were obtained:
Format in all cases: biochemical
KAT7 = KAT7 (Homo sapiens (Human), UniProt O95251); test: KAT assay (SAMDI mass spectrometry), KAT7;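 further: Baculovirus-expressed enzyme acetylating a histone peptide at room temperature, percent conversion from product and substrate peak areas, Ki from a Morrison tight-binding competitive fit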
KAT8 = KAT8 (Homo sapiens (Human), UniProt Q9H7Z6); test: KAT assay (SAMDI mass spectrometry), KAT8; conditions: read-out: KAT8 Ki at 1 μM AcCoA
KAT6B = KAT6B (Homo sapiens (Human), UniProt Q8WYB5); test: KAT assay (SAMDI mass spectrometry), KAT6B
KAT6A = KAT6A (Homo sapiens (Human), UniProt Q92794); test: KAT assay (SAMDI mass spectrometry), KAT6A;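 further: Baculovirus-expressed KAT6A acetylating histone H3 (1-21) peptide (2 µM), 30-60 min at room temperature, % product conversion fitted to Morrison equation for tight-binding competitive inhibitors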
KAT5 = KAT5 (Homo sapiens (Human), UniProt Q92993); test: KAT assay (SAMDI mass spectrometry), KAT5; conditions: read-out: KAT5 Ki at 1 μM AcCoA;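 further: Baculovirus-expressed KAT5 acetylating a histone H4 peptide at room temperature, read as percent conversion to product, Ki from a Morrison tight-binding competitive fit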
[1] = read-out: KAT7 Ki at 1 μM AcCoA
[2] = 25 μM AcCoA, read-out: KAT6b Ki at 25 μM AcCoA
[3] = read-out: KAT6b Ki at 1 μM AcCoA, 1 μM AcCoA
[4] = read-out: KAT6a Ki at 1 μM AcCoA, 1 μM AcCoA
[5] = read-out: KAT6a Ki at 10 μM AcCoA, 10 μM AcCoA

Chain of KAT8 (Q9H7Z6 whole entry): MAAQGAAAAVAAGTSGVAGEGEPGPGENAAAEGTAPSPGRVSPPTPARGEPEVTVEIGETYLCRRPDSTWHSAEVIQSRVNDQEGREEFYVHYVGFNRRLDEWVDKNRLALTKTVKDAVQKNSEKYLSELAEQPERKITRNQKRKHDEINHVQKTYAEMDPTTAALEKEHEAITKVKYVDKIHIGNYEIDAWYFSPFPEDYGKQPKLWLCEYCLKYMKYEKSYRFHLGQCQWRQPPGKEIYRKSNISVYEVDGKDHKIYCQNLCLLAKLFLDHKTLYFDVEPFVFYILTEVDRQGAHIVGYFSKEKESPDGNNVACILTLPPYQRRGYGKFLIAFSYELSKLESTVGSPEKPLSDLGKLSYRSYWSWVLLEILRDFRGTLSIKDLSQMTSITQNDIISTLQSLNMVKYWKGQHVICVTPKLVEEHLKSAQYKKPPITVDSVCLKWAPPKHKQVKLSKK
Chain of KAT6A (Q92794 whole entry): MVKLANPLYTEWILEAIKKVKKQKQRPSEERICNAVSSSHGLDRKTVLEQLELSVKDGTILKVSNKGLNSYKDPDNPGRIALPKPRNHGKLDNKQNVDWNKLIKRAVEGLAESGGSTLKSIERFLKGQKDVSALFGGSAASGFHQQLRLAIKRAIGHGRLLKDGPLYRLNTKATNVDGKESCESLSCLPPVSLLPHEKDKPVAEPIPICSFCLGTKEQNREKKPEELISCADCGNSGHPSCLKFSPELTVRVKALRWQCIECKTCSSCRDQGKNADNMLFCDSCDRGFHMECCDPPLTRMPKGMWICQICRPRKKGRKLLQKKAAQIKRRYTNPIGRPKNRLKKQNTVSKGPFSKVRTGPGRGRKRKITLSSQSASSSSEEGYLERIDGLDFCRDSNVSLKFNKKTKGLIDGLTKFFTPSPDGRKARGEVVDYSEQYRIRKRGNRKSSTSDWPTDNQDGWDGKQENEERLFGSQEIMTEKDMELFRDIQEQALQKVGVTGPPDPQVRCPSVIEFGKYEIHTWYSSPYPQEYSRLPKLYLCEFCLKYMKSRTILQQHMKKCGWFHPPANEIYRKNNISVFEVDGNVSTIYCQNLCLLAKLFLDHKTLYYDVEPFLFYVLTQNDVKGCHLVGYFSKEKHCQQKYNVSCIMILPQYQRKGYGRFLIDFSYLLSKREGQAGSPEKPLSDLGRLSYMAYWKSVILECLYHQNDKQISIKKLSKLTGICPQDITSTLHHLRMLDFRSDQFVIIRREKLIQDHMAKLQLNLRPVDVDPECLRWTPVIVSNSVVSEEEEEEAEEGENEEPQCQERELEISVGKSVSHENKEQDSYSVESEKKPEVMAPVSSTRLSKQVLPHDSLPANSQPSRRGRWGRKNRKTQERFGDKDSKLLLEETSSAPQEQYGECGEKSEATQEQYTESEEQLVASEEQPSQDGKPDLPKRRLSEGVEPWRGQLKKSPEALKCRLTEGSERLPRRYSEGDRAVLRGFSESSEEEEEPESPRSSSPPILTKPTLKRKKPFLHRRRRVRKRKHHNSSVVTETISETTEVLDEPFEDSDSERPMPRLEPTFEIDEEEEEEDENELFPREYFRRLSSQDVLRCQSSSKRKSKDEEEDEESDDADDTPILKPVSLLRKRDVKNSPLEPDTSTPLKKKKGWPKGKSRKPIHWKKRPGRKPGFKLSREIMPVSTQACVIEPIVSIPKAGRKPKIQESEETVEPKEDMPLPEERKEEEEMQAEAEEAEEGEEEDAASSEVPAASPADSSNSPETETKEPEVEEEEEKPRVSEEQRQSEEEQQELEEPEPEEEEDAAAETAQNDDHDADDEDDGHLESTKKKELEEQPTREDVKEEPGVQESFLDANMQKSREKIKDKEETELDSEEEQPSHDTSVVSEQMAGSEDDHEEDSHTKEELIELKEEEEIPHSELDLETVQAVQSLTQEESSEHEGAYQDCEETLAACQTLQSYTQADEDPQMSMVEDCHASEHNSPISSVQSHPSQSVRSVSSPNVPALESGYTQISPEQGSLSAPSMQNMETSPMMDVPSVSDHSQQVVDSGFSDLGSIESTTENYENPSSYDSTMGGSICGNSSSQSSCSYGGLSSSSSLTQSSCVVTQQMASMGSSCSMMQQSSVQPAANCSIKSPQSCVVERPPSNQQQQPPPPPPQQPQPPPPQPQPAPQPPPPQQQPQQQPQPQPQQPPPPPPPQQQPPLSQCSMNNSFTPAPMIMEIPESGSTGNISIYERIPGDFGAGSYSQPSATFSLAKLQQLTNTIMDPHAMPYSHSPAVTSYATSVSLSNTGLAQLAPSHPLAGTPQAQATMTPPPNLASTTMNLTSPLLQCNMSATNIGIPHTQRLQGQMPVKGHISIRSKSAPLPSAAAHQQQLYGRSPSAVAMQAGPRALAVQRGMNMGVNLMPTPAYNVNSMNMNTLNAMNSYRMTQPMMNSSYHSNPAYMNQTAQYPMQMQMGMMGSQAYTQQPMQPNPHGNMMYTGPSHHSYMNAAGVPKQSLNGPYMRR
Chain of KAT5 (Q92993 whole entry): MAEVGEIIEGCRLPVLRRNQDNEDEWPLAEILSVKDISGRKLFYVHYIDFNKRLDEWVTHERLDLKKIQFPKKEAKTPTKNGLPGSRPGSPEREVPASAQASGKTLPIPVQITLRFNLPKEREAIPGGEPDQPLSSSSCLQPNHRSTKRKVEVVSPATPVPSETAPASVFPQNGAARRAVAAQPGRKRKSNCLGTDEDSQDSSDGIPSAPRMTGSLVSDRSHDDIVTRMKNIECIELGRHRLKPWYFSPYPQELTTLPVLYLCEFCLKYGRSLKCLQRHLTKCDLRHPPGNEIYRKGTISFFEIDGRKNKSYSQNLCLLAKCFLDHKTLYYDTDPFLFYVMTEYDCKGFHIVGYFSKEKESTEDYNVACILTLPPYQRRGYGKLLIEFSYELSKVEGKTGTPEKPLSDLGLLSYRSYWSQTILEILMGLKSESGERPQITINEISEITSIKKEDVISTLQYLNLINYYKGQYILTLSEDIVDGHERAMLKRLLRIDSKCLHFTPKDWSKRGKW
Chain of KAT7 (O95251 whole entry): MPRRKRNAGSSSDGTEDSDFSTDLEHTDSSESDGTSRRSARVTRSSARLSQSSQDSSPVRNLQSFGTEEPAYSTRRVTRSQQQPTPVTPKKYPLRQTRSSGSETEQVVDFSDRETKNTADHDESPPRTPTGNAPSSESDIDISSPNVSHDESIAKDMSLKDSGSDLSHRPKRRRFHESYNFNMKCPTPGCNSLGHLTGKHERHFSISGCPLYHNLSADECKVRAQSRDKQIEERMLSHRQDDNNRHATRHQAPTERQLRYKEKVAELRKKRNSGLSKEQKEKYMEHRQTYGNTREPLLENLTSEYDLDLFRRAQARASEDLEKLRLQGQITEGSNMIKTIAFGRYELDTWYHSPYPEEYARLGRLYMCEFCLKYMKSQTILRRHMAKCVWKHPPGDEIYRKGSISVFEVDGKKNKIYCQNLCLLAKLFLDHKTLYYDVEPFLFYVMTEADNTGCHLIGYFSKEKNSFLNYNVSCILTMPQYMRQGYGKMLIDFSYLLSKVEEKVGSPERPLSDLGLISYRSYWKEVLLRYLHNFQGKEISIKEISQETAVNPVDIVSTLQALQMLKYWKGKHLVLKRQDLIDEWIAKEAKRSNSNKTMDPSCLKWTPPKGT

Ki (KAT7; [1])	Ki (KAT8)	Ki (KAT6B; [2])	Ki (KAT6B; [3])	Ki (KAT6A; [4])	Ki (KAT6A; [5])	Ki (KAT5)	Ki (KAT7; KAT7 Ki at 1 μM AcCoA)	Ki (KAT6A; KAT6a Ki at 1 μM AcCoA, 1 μM AcCoA)	Ki (KAT6A; KAT6a Ki at 10 μM AcCoA, 10 μM AcCoA)	SMILES
50 nM	110 nM	1.14 nM	0.68 nM	0.55 nM	0.43 nM	120 nM	–	–	–	CCc1ccc(OC)c(S(=O)(=O)Nc2noc3cc(Cn4cccn4)cc(OC)c23)c1 [Example 1, 5-ethyl-2-methoxy-N-{4-methoxy-6-[(1H-pyrazol-1-yl)methyl]-1,2-benzoxazol-3-yl}benzene-1-sulfonamide]
1720 nM	17400 nM	–	8.63 nM	3.79 nM	1.54 nM	9790 nM	–	–	–	COc1cccc(OC)c1S(=O)(=O)Nc1noc2cc(Cn3nccc3C)cc(OC)c12 [Example 3, 2,6-dimethoxy-N-{4-methoxy-6-[(5-methyl-1H-pyrazol-1-yl)methyl]-1,2-benzoxazol-3-yl}benzene-1-sulfonamide]
80 nM	660 nM	–	2.68 nM	1.11 nM	1.38 nM	530 nM	–	–	–	COc1ccc(S(=O)(=O)Nc2noc3cc(Cn4cccn4)cc(OC)c23)c(OC)c1 [Example 5]
120 nM	3320 nM	–	2.5 nM	1.5 nM	2.32 nM	980 nM	–	–	–	COc1cccc(F)c1S(=O)(=O)Nc1noc2cc(Cn3cccn3)cc(OC)c12 [Example 6]
230 nM	4460 nM	–	28.3 nM	21 nM	–	4530 nM	–	–	–	COc1cccc(OC)c1S(=O)(=O)Nc1noc2cc(Cn3cc(F)cn3)cc(OC)c12 [Example 7]
9320 nM	19400 nM	–	2.27 nM	2.72 nM	4.65 nM	60200 nM	–	–	–	COc1cccc(OC)c1S(=O)(=O)Nc1noc2cc(Cn3cccn3)cc(OC(C)C)c12 [Example 10]
5960 nM	3260 nM	–	14.6 nM	2.86 nM	5.57 nM	12500 nM	–	–	–	COc1cccc(OC)c1S(=O)(=O)Nc1noc2cc(Cn3cccn3)cc(OC3CC3)c12 [Example 11]
920 nM	1070 nM	2.14 nM	1.88 nM	1.82 nM	1.7 nM	1170 nM	–	–	–	COCc1ccc(OC)c(S(=O)(=O)Nc2noc3cc(Cn4cccn4)cc(OC)c23)c1 [Example 12]
50 nM	420 nM	1.05 nM	–	1.12 nM	0.49 nM	270 nM	–	–	–	COc1cc(OC)c(S(=O)(=O)Nc2noc3cc(Cn4cccn4)cc(OC)c23)c(OC)c1 [Example 14]
30 nM	170 nM	0.6 nM	–	0.65 nM	0.35 nM	70 nM	–	–	–	CCc1cc(S(=O)(=O)Nc2noc3cc(Cn4cccn4)cc(OC)c23)c(OC)cc1OC [Example 15]
120 nM	1750 nM	1.73 nM	–	1.27 nM	0.64 nM	830 nM	–	–	–	COc1ccc(OC(F)(F)F)cc1S(=O)(=O)Nc1noc2cc(Cn3cccn3)cc(OC)c12 [Example 16]
90 nM	220 nM	1.21 nM	–	0.7 nM	0.51 nM	150 nM	–	–	–	COc1ccc(C)cc1S(=O)(=O)Nc1noc2cc(Cn3cccn3)cc(OC)c12 [Example 17]
120 nM	100 nM	0.96 nM	–	0.83 nM	0.38 nM	130 nM	–	–	–	COc1ccc(C(C)C)cc1S(=O)(=O)Nc1noc2cc(Cn3cccn3)cc(OC)c12 [Example 18]
150 nM	960 nM	3.44 nM	–	2.18 nM	–	800 nM	–	–	–	COc1ccc(OC)c(S(=O)(=O)Nc2noc3cc(Cn4cccn4)cc(OC)c23)c1 [Example 19]
–	470 nM	4.08 nM	1.78 nM	0.34 nM	0.87 nM	150 nM	–	–	–	COc1cc2c(cc1S(=O)(=O)Nc1noc3cc(Cn4cccn4)cc(OC)c13)CCCC2 [Example 20]
120 nM	830 nM	1.14 nM	–	1.23 nM	–	1030 nM	–	–	–	COc1ccc2c(c1S(=O)(=O)Nc1noc3cc(Cn4cccn4)cc(OC)c13)CCCC2 [Example 21]
12900 nM	17400 nM	–	13.2 nM	16.5 nM	–	11700 nM	–	–	–	COc1cccc(OC)c1S(=O)(=O)Nc1noc2cc(Cn3ccnn3)cc(OC)c12 [Example 22]
40 nM	1970 nM	1.34 nM	0.87 nM	1.22 nM	1.24 nM	2070 nM	–	–	–	COc1cccc(OC)c1S(=O)(=O)Nc1noc2cc(Cn3nccn3)cc(OC)c12 [Example 23]
20 nM	160 nM	1.89 nM	–	1.01 nM	0.46 nM	190 nM	–	–	–	COc1cc(C2CC2)cc(OC)c1S(=O)(=O)Nc1noc2cc(Cn3cccn3)cc(OC)c12 [Example 24]
1080 nM	12500 nM	4.46 nM	–	2.74 nM	1.83 nM	12500 nM	–	–	–	CCOc1cc(Cn2cccn2)cc2onc(NS(=O)(=O)c3c(OC)cccc3OC)c12 [Example 25]

Ki (KAT7; [1])	Ki (KAT8)	Ki (KAT6B; [2])	Ki (KAT6B; [3])	Ki (KAT6A; [4])	Ki (KAT6A; [5])	Ki (KAT5)	Ki (KAT7; KAT7 Ki at 1 μM AcCoA)	Ki (KAT6A; KAT6a Ki at 1 μM AcCoA, 1 μM AcCoA)	Ki (KAT6A; KAT6a Ki at 10 μM AcCoA, 10 μM AcCoA)	SMILES
7790 nM	27100 nM	12.7 nM	–	8.01 nM	3.16 nM	125000 nM	–	–	–	COc1cc(OC)c(S(=O)(=O)Nc2noc3cc(Cn4cccn4)cc(OC4CC4)c23)c(OC)c1 [Example 26]
56 nM	–	0.89 nM	–	0.32 nM	–	–	–	–	–	COc1cccc(OC)c1S(=O)(=O)Nc1noc2cc(Cn3cccn3)c(C3CC3)cc12 [Example 31]
60 nM	–	2.1 nM	–	1.4 nM	–	–	–	–	–	CCc1ccc(OC)c(S(=O)(=O)Nc2noc3cc(Cn4cccn4)c(F)cc23)c1 [Example 32]
1200 nM	–	4.2 nM	–	30 nM	–	–	–	–	–	COc1ccccc1S(=O)(=O)Nc1noc2cc(Cn3cccn3)ccc12 [Example 34]
8 nM	–	0.26 nM	–	0.74 nM	–	–	–	–	–	COc1cc2c(NS(=O)(=O)c3c(OC)cccc3OC)noc2cc1Cn1cccn1 [Example 39]
230 nM	–	0.36 nM	–	0.36 nM	–	–	–	–	–	COc1cccc(OC)c1S(=O)(=O)Nc1noc2cc(Cn3cccn3)c(OC(F)F)cc12 [Example 41]
160 nM	–	0.48 nM	–	0.72 nM	–	–	–	–	–	COc1cc2c(cc1S(=O)(=O)Nc1noc3cc(Cn4cccn4)cc(OC)c13)CCCO2 [Example 42]
630 nM	–	43 nM	–	12 nM	–	–	–	–	–	COCc1ccc(OC)c(S(=O)(=O)Nc2noc3cc(Cn4cccn4)c(F)cc23)c1 [Example 44]
370 nM	–	2.9 nM	–	1.7 nM	2.6 nM	–	–	–	–	COc1cccc(OC)c1S(=O)(=O)Nc1noc2cc(Cc3ccccn3)cc(OC)c12 [Example 107, 2,6-dimethoxy-N-[4-methoxy-6-(pyridin-2-ylmethyl)-1,2-benzoxazol-3-yl]benzenesulfonamide]
–	–	8.8 nM	–	–	–	–	230 nM	2.5 nM	2.1 nM	COc1cccc(OC)c1S(=O)(=O)Nc1noc2cc(Cc3ncco3)cc(OC)c12 [Example 110, 2,6-dimethoxy-N-[4-methoxy-6-(1,3-oxazol-2-ylmethyl)-1,2-benzoxazol-3-yl]benzenesulfonamide]
220 nM	–	2 nM	–	1.9 nM	–	–	–	–	–	COc1cccc(OC)c1S(=O)(=O)Nc1noc2cc(Cc3ccon3)cc(OC)c12 [Example 114]
95 nM	–	25 nM	–	3 nM	–	–	–	–	–	COc1cccc(OC)c1S(=O)(=O)Nc1noc2cc(Cc3ncccn3)cc(OC)c12 [Example 116]
6290 nM	–	–	–	700 nM	–	–	–	–	–	COc1cccc(OC)c1S(=O)(=O)Nc1noc2cc(Cc3cnn(C)c3)cc(OC)c12 [Example 124]
137 nM	–	–	–	8.6 nM	–	–	–	–	–	COc1cccc(OC)c1S(=O)(=O)Nc1noc2cc(Cc3cocn3)cc(OC)c12 [Example 127]
49 nM	–	1.2 nM	–	0.54 nM	0.59 nM	–	–	–	–	COc1cccc(OC)c1S(=O)(=O)Nc1noc2cc(Cn3cccn3)c(F)c(OC)c12 [Example 128, N-{5-fluoro-4-methoxy-6-[(1H-pyrazol-1-yl)methyl]-1,2-benzoxazol-3-yl}-2,6-dimethoxybenzene-1-sulfonamide]
10.6 nM	–	–	–	0.33 nM	–	–	–	–	–	COc1ccccc1S(=O)(=O)Nc1noc2cc(Cn3cccn3)c(F)c(OC)c12 [Example 129]
100 nM	–	–	–	0.77 nM	–	–	–	–	–	COc1ccccc1S(=O)(=O)Nc1noc2cc(Cn3cccn3)cc(C3CC3)c12 [Example 130]
662 nM	–	–	–	28.3 nM	–	–	–	–	–	Cc1ccc(S(=O)(=O)Nc2noc3cc(Cn4cccn4)c(C)cc23)cc1C [Example 131]
124 nM	–	–	–	4.1 nM	–	–	–	–	–	COc1ccccc1S(=O)(=O)Nc1noc2cc(Cn3cccn3)c(C)cc12 [Example 132]
19.2 nM	–	–	–	2.9 nM	–	–	–	–	–	COc1ccccc1S(=O)(=O)Nc1noc2cc(Cn3nccn3)cc(OC)c12 [Example 133]

SMILES	Ki (KAT7; [1])	Ki (KAT8)	Ki (KAT6B; [2])	Ki (KAT6B; [3])	Ki (KAT6A; [4])	Ki (KAT6A; [5])	Ki (KAT5)	Ki (KAT7; KAT7 Ki at 1 μM AcCoA)	Ki (KAT6A; KAT6a Ki at 1 μM AcCoA, 1 μM AcCoA)	Ki (KAT6A; KAT6a Ki at 10 μM AcCoA, 10 μM AcCoA)
COc1cc(Br)cc(OC)c1S(=O)(=O)Nc1noc2cc(Cn3cccn3)cc(OC)c12 [Example 8]	60 nM	2870 nM	6.63 nM	5.74 nM	1.54 nM	3.23 nM	1710 nM	–	–	–
